{"source": "patent US20240209028A1", "about": "“CNP COMPOUNDS” (priority 2022, published 2024)", "note": "Starred links: 1 amine or outer side, 2 acyl side, 3 side chain; linkers in the order of their positions; H or OH if unused. Positions of bridges follow the written chain, without caps; N, C: chain ends. Residues, ends and D or L forms follow the SMILES beside them. *: point of attachment. C18 diacid = O=C(O)CCCCCCCCCCCCCCCCC(=O)*; γGlu = O=C(O)[C@H](CCC(=O)[*:2])N[*:1]; AEEA = NCCOCCOCC(=O)O", "data": [{"biological_target": "T1, human natriuretic peptide receptor 2 (hNPR2) (Homo sapiens, UniProt P20594)", "T1 construct": "expressed in transfected cells; host or cells: HEK293 (ATCC CRL-1573), clone 35, co-transfected with pGloSensor-42F", "T1 sequence (P20594 23-1047)": "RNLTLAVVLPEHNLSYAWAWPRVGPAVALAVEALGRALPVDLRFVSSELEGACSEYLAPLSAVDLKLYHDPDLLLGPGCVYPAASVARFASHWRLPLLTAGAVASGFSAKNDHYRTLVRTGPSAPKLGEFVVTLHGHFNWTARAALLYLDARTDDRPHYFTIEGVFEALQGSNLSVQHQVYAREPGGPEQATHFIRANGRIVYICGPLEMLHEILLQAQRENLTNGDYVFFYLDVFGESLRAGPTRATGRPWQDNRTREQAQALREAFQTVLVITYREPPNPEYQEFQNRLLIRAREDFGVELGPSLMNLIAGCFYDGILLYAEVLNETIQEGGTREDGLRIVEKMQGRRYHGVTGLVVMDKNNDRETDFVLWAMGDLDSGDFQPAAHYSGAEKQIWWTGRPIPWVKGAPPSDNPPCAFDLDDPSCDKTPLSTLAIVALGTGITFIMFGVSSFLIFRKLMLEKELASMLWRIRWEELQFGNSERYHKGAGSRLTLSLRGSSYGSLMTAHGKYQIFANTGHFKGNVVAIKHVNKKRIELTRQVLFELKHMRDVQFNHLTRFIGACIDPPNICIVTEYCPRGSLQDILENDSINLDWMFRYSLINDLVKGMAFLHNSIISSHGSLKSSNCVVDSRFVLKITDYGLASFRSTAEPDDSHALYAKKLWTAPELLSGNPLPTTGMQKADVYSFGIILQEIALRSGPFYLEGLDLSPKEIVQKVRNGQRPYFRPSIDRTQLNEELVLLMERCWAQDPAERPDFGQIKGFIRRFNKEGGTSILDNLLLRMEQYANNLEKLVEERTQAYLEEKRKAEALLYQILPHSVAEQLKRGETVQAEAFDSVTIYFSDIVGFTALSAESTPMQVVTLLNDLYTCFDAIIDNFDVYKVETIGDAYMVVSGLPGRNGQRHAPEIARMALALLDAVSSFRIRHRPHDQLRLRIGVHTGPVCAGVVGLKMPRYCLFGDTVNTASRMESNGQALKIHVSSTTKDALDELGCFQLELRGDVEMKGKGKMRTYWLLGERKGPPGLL", "assay": "In vitro hNPR2 activity assay (cGMP GloSensor reporter, HEK293)", "format": "cell-based", "settings": "potency relative to CNP22 (0065)", "summary_of_the_method": "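Potency is the EC50 from a four-parameter logistic fit, also expressed relative to the in-plate CNP22 control (×100), with at least two replicates. Compounds (ten concentrations, […], HSA-free diluent with 1% OVA, 0.01% Tween20) were incubated 30 min at 37 °C on HEK293 cells co-expressing hNPR2 and a GloSensor cGMP luciferase. Luminescence detected with Bright-Glo.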", "units": {"hNPR2 0% HSA. [EC50% rel CNP]": "%"}, "values": [{"compound": "CC[C@H](C)[C@@H]1NC(=O)[C@H](CCCNC(=N)N)NC(=O)[C@H](CC(=O)O)NC(=O)[C@H](CC(C)C)NC(=O)[C@@H]2CCCN2C(=O)[C@H](CC(C)C)NC(=O)CNC(=O)[C@H](Cc2ccccc2)NC(=O)[C@@H](NC(=O)CNC(=O)[C@H](CCC(N)=O)NC(=O)[C@H](CO)NC(=O)[C@H](CC(C)C)NC(=O)CNC(=O)[C@H](CCCCN)NC(=O)[C@H](CCCCN)NC(=O)[C@H](CCC(N)=O)NC(=O)[C@H](C)NC(=O)CNC(=O)[C@H](CCCCN)NC(=O)[C@H](Cc2ccc(O)cc2)NC(=O)[C@H](CCCCN)NC(=O)[C@H](CCCNC(=N)N)NC(=O)[C@H](C)NC(=O)COCCOCCNC(=O)COCCOCCNC(=O)CC[C@H](NC(=O)CC[C@H](NC(=O)CC[C@H](NC(=O)CC[C@H](NC(=O)CCCCCCCCCCCCCCCCC(=O)O)C(=O)O)C(=O)O)C(=O)O)C(=O)O)CSSC[C@@H](C(=O)O)NC(=O)CNC(=O)[C@H](CC(C)C)NC(=O)CNC(=O)[C@H](CO)NC(=O)[C@H](CC(C)C)NC(=O)[C@H](CO)NC(=O)CNC1=O", "note": "[compound 1456] ({C18 diacid-γGlu-γGlu-γGlu-γGlu-AEEA-AEEA}-ARKYKGAQKKGLSQGCFGLPLDRIGSLSGLGC-OH; disulfide 16-32)", "hNPR2 0% HSA. [EC50% rel CNP]": 50.4}, {"compound": "CC[C@H](C)[C@@H]1NC(=O)[C@H](CCCNC(=N)N)NC(=O)[C@H](CC(=O)O)NC(=O)[C@H](CC(C)C)NC(=O)[C@@H]2CCCN2C(=O)[C@H](CC(C)C)NC(=O)CNC(=O)[C@H](Cc2ccccc2)NC(=O)[C@@H](NC(=O)CNC(=O)[C@H](CCC(N)=O)NC(=O)[C@H](CO)NC(=O)[C@H](CO)NC(=O)CNC(=O)[C@H](CCCCN)NC(=O)[C@H](CCCCN)NC(=O)[C@H](CCC(N)=O)NC(=O)[C@H](C)NC(=O)CNC(=O)[C@@H]2CCCN2C(=O)[C@H](C)NC(=O)[C@H](CCC(N)=O)NC(=O)CNC(=O)[C@@H]2CCCN2C(=O)[C@H](C)NC(=O)[C@H](CCC(N)=O)NC(=O)CNC(=O)COCCOCCNC(=O)COCCOCCNC(=O)CC[C@H](NC(=O)CCCCCCCCCCCCCCCCC(=O)O)C(=O)O)CSSC[C@@H](C(=O)O)NC(=O)CNC(=O)[C@H](CC(C)C)NC(=O)CNC(=O)[C@H](CO)NC(=O)[C@H](CC(C)C)NC(=O)[C@H](CO)NC(=O)CNC1=O", "note": "[compound 1458] ({C18 diacid-γGlu-AEEA-AEEA}-GQAPGQAPGAQKKGSSQGCFGLPLDRIGSLSGLGC-OH; disulfide 19-35)", "hNPR2 0% HSA. [EC50% rel CNP]": 93.6}, {"compound": "CC[C@H](C)[C@@H]1NC(=O)[C@H](CCCNC(=N)N)NC(=O)[C@H](CC(=O)O)NC(=O)[C@H](CC(C)C)NC(=O)[C@@H]2CCCN2C(=O)[C@H](CC(C)C)NC(=O)CNC(=O)[C@H](Cc2ccccc2)NC(=O)[C@@H](NC(=O)CNC(=O)[C@H](CCC(N)=O)NC(=O)[C@H](CO)NC(=O)[C@H](CO)NC(=O)CNC(=O)[C@H](CCCCN)NC(=O)[C@H](CCCCN)NC(=O)[C@H](CCC(N)=O)NC(=O)[C@H](C)NC(=O)CNC(=O)[C@H](CCCCN)NC(=O)[C@H](Cc2ccc(O)cc2)NC(=O)[C@H](CCCCN)NC(=O)[C@H](CCCNC(=N)N)NC(=O)[C@H](C)NC(=O)[C@@H]2CCCN2C(=O)[C@H](C)NC(=O)[C@H](CCC(N)=O)NC(=O)CNC(=O)COCCOCCNC(=O)COCCOCCNC(=O)CC[C@H](NC(=O)CC[C@H](NC(=O)CC[C@H](NC(=O)CC[C@H](NC(=O)CCCCCCCCCCCCCCCCC(=O)O)C(=O)O)C(=O)O)C(=O)O)C(=O)O)CSSC[C@@H](C(=O)O)NC(=O)CNC(=O)[C@H](CC(C)C)NC(=O)CNC(=O)[C@H](CO)NC(=O)[C@H](CC(C)C)NC(=O)[C@H](CO)NC(=O)CNC1=O", "note": "[compound 1459] ({C18 diacid-γGlu-γGlu-γGlu-γGlu-AEEA-AEEA}-GQAPARKYKGAQKKGSSQGCFGLPLDRIGSLSGLGC-OH; disulfide 20-36)", "hNPR2 0% HSA. [EC50% rel CNP]": 76.1}, {"compound": "CC[C@H](C)[C@@H]1NC(=O)[C@H](CCCNC(=N)N)NC(=O)[C@H](CC(=O)O)NC(=O)[C@H](CC(C)C)NC(=O)[C@@H]2CCCN2C(=O)[C@H](CC(C)C)NC(=O)CNC(=O)[C@H](Cc2ccccc2)NC(=O)[C@@H](NC(=O)CNC(=O)[C@H](CCCCN)NC(=O)[C@H](CO)NC(=O)[C@H](CC(C)C)NC(=O)CNC(=O)[C@H](CCCCN)NC(=O)[C@H](CCCCN)NC(=O)[C@H](CCC(N)=O)NC(=O)[C@H](C)NC(=O)CNC(=O)[C@H](CCCCN)NC(=O)[C@H](Cc2ccc(O)cc2)NC(=O)[C@H](CCCCN)NC(=O)[C@H](CCCNC(=N)N)NC(=O)[C@H](C)NC(=O)COCCOCCNC(=O)COCCOCCNC(=O)CC[C@H](NC(=O)CC[C@H](NC(=O)CC[C@H](NC(=O)CC[C@H](NC(=O)CC[C@H](NC(=O)CC[C@H](NC(=O)CCCCCCCCCCCCCCCCC(=O)O)C(=O)O)C(=O)O)C(=O)O)C(=O)O)C(=O)O)C(=O)O)CSSC[C@@H](C(=O)O)NC(=O)CNC(=O)[C@H](CC(C)C)NC(=O)CNC(=O)[C@H](CO)NC(=O)[C@H](CC(C)C)NC(=O)[C@H](CO)NC(=O)CNC1=O", "note": "[compound 1460] ({C18 diacid-γGlu-γGlu-γGlu-γGlu-γGlu-γGlu-AEEA-AEEA}-ARKYKGAQKKGLSKGCFGLPLDRIGSLSGLGC-OH; disulfide 16-32)", "hNPR2 0% HSA. [EC50% rel CNP]": 32.4}, {"compound": "CC[C@H](C)[C@@H]1NC(=O)[C@H](CCCNC(=N)N)NC(=O)[C@H](CC(=O)O)NC(=O)[C@H](CC(C)C)NC(=O)[C@@H]2CCCN2C(=O)[C@H](CC(C)C)NC(=O)CNC(=O)[C@H](Cc2ccccc2)NC(=O)[C@@H](NC(=O)CNC(=O)[C@H](CCC(N)=O)NC(=O)[C@H](CO)NC(=O)[C@H](CC(C)C)NC(=O)CNC(=O)[C@H](CCCCN)NC(=O)[C@H](CCCCN)NC(=O)[C@H](CCC(N)=O)NC(=O)[C@H](C)NC(=O)CNC(=O)[C@H](Cc2c[nH]cn2)NC(=O)[C@H](Cc2ccc(O)cc2)NC(=O)COCCOCCNC(=O)COCCOCCNC(=O)COCCOCCNC(=O)COCCOCCNC(=O)CC[C@H](NC(=O)CC[C@H](NC(=O)CCCCCCCCCCCCCCCCC(=O)O)C(=O)O)C(=O)O)CSSC[C@@H](C(=O)O)NC(=O)CNC(=O)[C@H](CC(C)C)NC(=O)CNC(=O)[C@H](CO)NC(=O)[C@H](CC(C)C)NC(=O)[C@H](CO)NC(=O)CNC1=O", "note": "[compound 1461] ({C18 diacid-γGlu-γGlu-AEEA-AEEA-AEEA-AEEA}-YHGAQKKGLSQGCFGLPLDRIGSLSGLGC-OH; disulfide 13-29)", "hNPR2 0% HSA. [EC50% rel CNP]": 28.9}, {"compound": "CC[C@H](C)[C@@H]1NC(=O)[C@H](CCCNC(=N)N)NC(=O)[C@H](CC(=O)O)NC(=O)[C@H](CC(C)C)NC(=O)[C@@H]2CCCN2C(=O)[C@H](CC(C)C)NC(=O)CNC(=O)[C@H](Cc2ccccc2)NC(=O)[C@@H](NC(=O)CNC(=O)[C@H](CCCCN)NC(=O)[C@H](CO)NC(=O)[C@H](CC(C)C)NC(=O)CNC(=O)[C@H](CCCCN)NC(=O)[C@H](CCCCN)NC(=O)[C@H](CCC(N)=O)NC(=O)[C@H](C)NC(=O)CNC(=O)[C@H](CCCCN)NC(=O)[C@H](Cc2ccc(O)cc2)NC(=O)[C@H](CCCCN)NC(=O)[C@H](CCCNC(=N)N)NC(=O)[C@H](C)NC(=O)COCCOCCNC(=O)COCCOCCNC(=O)COCCOCCNC(=O)COCCOCCNC(=O)CC[C@H](NC(=O)CC[C@H](NC(=O)CC[C@H](NC(=O)CC[C@H](NC(=O)CC[C@H](NC(=O)CCCCCCCCCCCCCCCCC(=O)O)C(=O)O)C(=O)O)C(=O)O)C(=O)O)C(=O)O)CSSC[C@@H](C(=O)O)NC(=O)CNC(=O)[C@H](CC(C)C)NC(=O)CNC(=O)[C@H](CO)NC(=O)[C@H](CC(C)C)NC(=O)[C@H](CO)NC(=O)CNC1=O", "note": "[compound 1462] ({C18 diacid-γGlu-γGlu-γGlu-γGlu-γGlu-AEEA-AEEA-AEEA-AEEA}-ARKYKGAQKKGLSKGCFGLPLDRIGSLSGLGC-OH; disulfide 16-32)", "hNPR2 0% HSA. [EC50% rel CNP]": 106.6}]}]}
